Assay results from patent publication US20200281918A1, “CALCIUM RELEASE-ACTIVATED CALCIUM CHANNEL MODULATORS FOR TREATING HEMATOLOGICAL AND SOLID CANCERS” (Rhizen Pharmaceuticals SA, priority 2017, published 2020).
Each block holds one compound with its values, some of them ahead of it.

Legend:
[1] = tested on: A549 cells; test: Induction of Caspase 3 (Millipore Caspase-3 kit, fluorimetric); type: cell-based; settings: 48 hours, 10-10,000 nM (FIG. 1)
Experimental: (§1) NCH-H460, A549 and NCI-H1975 cells were incubated with desired concentrations of the test compound for 48 hours. An equal number of cells per well (0.3×10^6 cells) were used. The increase in apoptosis manifested by an elevation in caspase-3 levels was determined using a Caspase-3 kit from Millipore. Induction of Caspase 3 by Compound (A) was measured fluorimetrically.

[2] = tested on: NCH-H460 cells; test: as above; type: cell-based; settings: 48 hours, 10-10,000 nM (FIG. 1)
Experimental: as §1

[3] = tested on: NCI-H1975 cells; test: as above; type: cell-based; settings: 48 hours, 10-10,000 nM (FIG. 1)
Experimental: as §1

[4] = tested on: A549 cells; test: Scratch-wound migration assay; type: cell-based; settings: 10% FBS, 72 hours, 10-10,000 nM (FIG. 2)
Experimental: A scratch was made to a serum-starved monolayer of A549 cells followed by washing and incubation with a desired concentration of Compound (A) in media with 10% fetal bovine serum (FBS) for 72 hours. The distance between the two edges of the wound was measured and percent inhibition was calculated with respect to a control.

[5] = tested on: normal lung cell line WI-38; test: Anti-proliferative effect (MTT assay); type: cell-based; settings: WI-38, MTT, 48-72 hours
Experimental: (§2) A panel of cancer cell lines representing various different types of cancers were plated in 96-well plates and incubated with desired concentrations of Compound (A) for 48-72 hours. At the end of the incubation period, MTT ((3-(4,5-dimethylthiazol-2-yl)-2,5-diphenyltetrazolium bromide)) was added. The plates were placed on a shaker for 5 minutes to mix the formazan and the optical density at 560 nm was measured using a spectrophotometer. Data were plotted using Graphpad Prism for calculation of the GI50 concentrations.

[6] = tested on: panel of cancer cell lines; test: Anti-proliferative effect (MTT assay); type: cell-based; settings: majority of the cell lines tested, 48-72 hours, MTT (FIG. 3)
Experimental: as §2

[7] = tested on: 769-P; test: Apoptosis (activated caspase-3 antibody) panel; type: cell-based
Experimental: (§3) An antibody to activated caspase-3 was used to label cells from early to late stage apoptosis. The concentration of Compound (A) that caused a 2-fold induction in the caspase-3 signal was determined, indicating a significant apoptosis induction.

[8] = tested on: 786-O; test: Apoptosis (activated caspase-3 antibody) panel; type: cell-based
Experimental: as §3

[9] = tested on: A427; test: Apoptosis (activated caspase-3 antibody) panel; type: cell-based
Experimental: as §3

[10] = tested on: A7; test: Apoptosis (activated caspase-3 antibody) panel; type: cell-based
Experimental: as §3

[11] = tested on: ACHN; test: Apoptosis (activated caspase-3 antibody) panel; type: cell-based
Experimental: as §3

[12] = tested on: AGS; test: Apoptosis (activated caspase-3 antibody) panel; type: cell-based
Experimental: as §3

[13] = tested on: ARH-77; test: Apoptosis (activated caspase-3 antibody) panel; type: cell-based
Experimental: as §3

[14] = tested on: AsPC-1; test: Apoptosis (activated caspase-3 antibody) panel; type: cell-based
Experimental: as §3

[15] = tested on: C32; test: Apoptosis (activated caspase-3 antibody) panel; type: cell-based
Experimental: as §3

[16] = tested on: Calu6; test: Apoptosis (activated caspase-3 antibody) panel; type: cell-based
Experimental: as §3

[17] = tested on: DB; test: Apoptosis (activated caspase-3 antibody) panel; type: cell-based
Experimental: as §3

[18] = tested on: DOHH-2; test: Apoptosis (activated caspase-3 antibody) panel; type: cell-based
Experimental: as §3

[19] = tested on: G-402; test: Apoptosis (activated caspase-3 antibody) panel; type: cell-based
Experimental: as §3

[20] = tested on: HCT-116; test: Apoptosis (activated caspase-3 antibody) panel; type: cell-based
Experimental: as §3

[21] = tested on: Hs 578T; test: Apoptosis (activated caspase-3 antibody) panel; type: cell-based
Experimental: as §3

[22] = tested on: MDA MB 231; test: Apoptosis (activated caspase-3 antibody) panel; type: cell-based
Experimental: as §3

[23] = tested on: MDA MB 468; test: Apoptosis (activated caspase-3 antibody) panel; type: cell-based
Experimental: as §3

[24] = tested on: NCI-H661; test: Apoptosis (activated caspase-3 antibody) panel; type: cell-based
Experimental: as §3

[25] = tested on: PANC-1; test: Apoptosis (activated caspase-3 antibody) panel; type: cell-based
Experimental: as §3

[26] = tested on: PC-3; test: Apoptosis (activated caspase-3 antibody) panel; type: cell-based
Experimental: as §3

[27] = tested on: RD; test: Apoptosis (activated caspase-3 antibody) panel; type: cell-based
Experimental: as §3

[28] = tested on: RKO-AS45-1; test: Apoptosis (activated caspase-3 antibody) panel; type: cell-based
Experimental: as §3

[29] = tested on: RKOE6; test: Apoptosis (activated caspase-3 antibody) panel; type: cell-based
Experimental: as §3

[30] = tested on: SH-4; test: Apoptosis (activated caspase-3 antibody) panel; type: cell-based
Experimental: as §3

[31] = tested on: SK-BR-3; test: Apoptosis (activated caspase-3 antibody) panel; type: cell-based
Experimental: as §3

[32] = tested on: SKO-007; test: Apoptosis (activated caspase-3 antibody) panel; type: cell-based
Experimental: as §3

[33] = tested on: SW1088; test: Apoptosis (activated caspase-3 antibody) panel; type: cell-based
Experimental: as §3

[34] = tested on: T98G; test: Apoptosis (activated caspase-3 antibody) panel; type: cell-based
Experimental: as §3

[35] = tested on: U266B1; test: Apoptosis (activated caspase-3 antibody) panel; type: cell-based
Experimental: as §3

[36] = tested on: Wi38; test: Apoptosis (activated caspase-3 antibody) panel; type: cell-based
Experimental: as §3

[37] = tested on: NFkB; test: Western blotting of markers in Jurkat cells; type: cell-based; settings: 24 hours, 10, 100, 1000 nM (FIG. 4)
Experimental: (§4) Cell lines were plated in RPMI media at a pre-determined density in a 6-well plate. After overnight incubation, cells were treated with Compound (A) for 24 hours. Cell lysates were analyzed for the expression of markers by Western Blotting. Gapdh, mTOR and S6 were used as a loading control for NFkB, phospho-mTOR, and phospho-S6 respectively. Lanes: A: Blank; B: 10 nM; C: 100 nM; D: 1000 nM.

[38] = tested on: phospho-S6; test: Western blotting of markers in Jurkat cells; type: cell-based; settings: 24 hours, 10, 100, 1000 nM (FIG. 4)
Experimental: as §4

[39] = tested on: phospho-mTOR; test: Western blotting of markers in Jurkat cells; type: cell-based; settings: 24 hours, 10, 100, 1000 nM (FIG. 4)
Experimental: as §4

[40] = tested on: NCI-H460 human non-small cell lung tumor xenografts; test: NCI-H460 human non-small cell lung cancer xenograft model; type: in vivo, female Balb/c nude mice
Experimental: (§5) The anti-tumor effect of Compound (A) was determined as a single agent in a NCI-H460 human non-small cell lung cancer xenografts model using female Balb/c nude mice. 10^6 cells were injected into the flank region. A week after tumor cell injection, mice either received the vehicle, oral administration of Compound (A) at 30 mg/kg BID or intravenous administration of taxol at 10 mg/kg Q3D (every three days) across a 15 day period. At the end of the study period, animals were sacrificed and the tumors harvested.

[41] = Body weight in NCI-H460 xenograft model; type: in vivo, female Balb/c nude mice; settings: oral 30 mg/kg BID, 15 day period, Balb/c nude mice
Experimental: as §5

[42] = concentration causing 2-fold induction in caspase-3 signal

- GI50 [6]: 300 to 3000 nM
Compound: O=C(Cc1ccc2ncccc2c1)Nc1ccc(-n2nc(C3CC3)cc2C2CC2)cc1 [Compound (A), N-(4-(3,5-dicyclopropyl-1H-pyrazol-1-yl)phenyl)-2-(quinolin-6-yl)acetamide]
- caspase-3 induction [1]: dose-dependent increase
- caspase-3 induction [2]: dose-dependent increase
- caspase-3 induction [3]: dose-dependent increase
- FBS induced migration of A549 cells [4]: dose-dependent reduction
- growth of normal lung cell line WI-38 [5]: did not affect growth
- Apoptosis Emax [7]: 10.3
- G1/S cell cycle block [7]: 4.82 µM
- Apoptosis 2 Fold Induction [7, 42]: 24.71 µM
- Apoptosis Emax [8]: 4.67
- G1/S cell cycle block [8]: 4.4 µM
- Apoptosis 2 Fold Induction [8, 42]: 10.31 µM
- Apoptosis Emax [9]: 16.1
- G1/S cell cycle block [9]: 3.52 µM
- Apoptosis 2 Fold Induction [9, 42]: 2.77 µM
- Apoptosis Emax [10]: 55.74
- G1/S cell cycle block [10]: 2.78 µM
- Apoptosis 2 Fold Induction [10, 42]: 2.22 µM
- Apoptosis Emax [11]: 2.86
- G1/S cell cycle block [11]: 10.3 µM
- Apoptosis 2 Fold Induction [11, 42]: 11.23 µM
- Apoptosis Emax [12]: 26.62
- G1/S cell cycle block [12]: 3.16 µM
- Apoptosis 2 Fold Induction [12, 42]: 5.04 µM
- Apoptosis Emax [13]: 5.36
- G1/S cell cycle block [13]: 7.02 µM
- Apoptosis 2 Fold Induction [13, 42]: 30.74 µM
- Apoptosis Emax [14]: 2.07
- G1/S cell cycle block [14]: 3.64 µM
- Apoptosis Emax [15]: 4.7
- G1/S cell cycle block [15]: 10.7 µM
- Apoptosis 2 Fold Induction [15, 42]: 80.52 µM
- Apoptosis Emax [16]: 3.34
- G1/S cell cycle block [16]: 10.5 µM
- Apoptosis 2 Fold Induction [16, 42]: 3.73 µM
- Apoptosis Emax [17]: 16.8
- G1/S cell cycle block [17]: 7.03 µM
- Apoptosis 2 Fold Induction [17, 42]: 4.08 µM
- Apoptosis Emax [18]: 6.13
- G1/S cell cycle block [18]: 3.23 µM
- Apoptosis 2 Fold Induction [18, 42]: 3.03 µM
- Apoptosis Emax [19]: 5.14
- G1/S cell cycle block [19]: 3.74 µM
- Apoptosis 2 Fold Induction [19, 42]: 3.11 µM
- Apoptosis Emax [20]: 20.36
- G1/S cell cycle block [20]: 1.89 µM
- Apoptosis 2 Fold Induction [20, 42]: 2.97 µM
- Apoptosis Emax [21]: 1.19
- G1/S cell cycle block [21]: 4.56 µM
- Apoptosis Emax [22]: 4.35
- Apoptosis 2 Fold Induction [22, 42]: 18.4 µM
- Apoptosis Emax [23]: 8.86
- G1/S cell cycle block [23]: 7.81 µM
- Apoptosis 2 Fold Induction [23, 42]: 3.02 µM
- Apoptosis Emax [24]: 13.23
- G1/S cell cycle block [24]: 2.8 µM
- Apoptosis 2 Fold Induction [24, 42]: 17.64 µM
- Apoptosis Emax [25]: 11.49
- G1/S cell cycle block [25]: 7.32 µM
- Apoptosis 2 Fold Induction [25, 42]: 8.83 µM
- Apoptosis Emax [26]: 12.31
- G1/S cell cycle block [26]: 8.13 µM
- Apoptosis 2 Fold Induction [26, 42]: 2.05 µM
- Apoptosis Emax [27]: 3.03
- G1/S cell cycle block [27]: 7.08 µM
- Apoptosis 2 Fold Induction [27, 42]: 11.45 µM
- Apoptosis Emax [28]: 40.99
- G1/S cell cycle block [28]: 3.94 µM
- Apoptosis 2 Fold Induction [28, 42]: 3.15 µM
- Apoptosis Emax [29]: 14.43
- G1/S cell cycle block [29]: 4.85 µM
- Apoptosis 2 Fold Induction [29, 42]: 4.64 µM
- Apoptosis Emax [30]: 72.67
- G1/S cell cycle block [30]: 16.6 µM
- Apoptosis 2 Fold Induction [30, 42]: 15.59 µM
- Apoptosis Emax [31]: 8.32
- G1/S cell cycle block [31]: 6.11 µM
- Apoptosis 2 Fold Induction [31, 42]: 11.6 µM
- Apoptosis Emax [32]: 15.45
- G1/S cell cycle block [32]: 5.2 µM
- Apoptosis 2 Fold Induction [32, 42]: 6.42 µM
- Apoptosis Emax [33]: 8.54
- G1/S cell cycle block [33]: 33 µM
- Apoptosis 2 Fold Induction [33, 42]: 75.51 µM
- Apoptosis Emax [34]: 21.74
- G1/S cell cycle block [34]: 41.3 µM
- Apoptosis 2 Fold Induction [34, 42]: 53.96 µM
- Apoptosis Emax [35]: 4.88
- G1/S cell cycle block [35]: 3.56 µM
- Apoptosis 2 Fold Induction [35, 42]: 11.11 µM
- Apoptosis Emax [36]: 0.49
- G1/S cell cycle block [36]: 8.82 µM
- NFkB expression (Western blot) [37]: dose-dependent reduction
- phospho-S6 expression (Western blot) [38]: dose-dependent reduction
- phospho-mTOR expression (Western blot) [39]: dose-dependent reduction
- tumor growth inhibition (TGI) value ([40]; day 15, oral 30 mg/kg BID): 38.3%
- inhibition of tumor growth ([40]; oral 30 mg/kg BID, 15 day period): significant inhibition of tumor growth
- mice body weight [41]: did not affect the mice body weight

Compound: CC(=O)O[C@H]1C(=O)[C@@]2(C)[C@H]([C@H](OC(=O)c3ccccc3)[C@]3(O)C[C@H](OC(=O)[C@H](O)[C@@H](NC(=O)c4ccccc4)c4ccccc4)C(C)=C1C3(C)C)[C@]1(OC(C)=O)CO[C@@H]1C[C@@H]2O [taxol, reference compound]
- tumor growth inhibition (TGI) value ([40]; day 15, intravenous 10 mg/kg Q3D): 36.7%
